Results as given in PubChem BioAssay (NCI).
Values joined by “and” are separate entries in the source; they are usually repeats but may differ in a detail not shown here. Identical values can stand only once.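 Cultured in 96-well plates, cells were exposed to test compound for 48 hours across five concentrations. GI50: concentration for 50% inhibition of growth. TGI: total growth inhibition.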

What was measured:
Assay in all cases: NCI tumour cell line growth inhibition, 48 h
[1] = tested on: ACHN renal
[2] = tested on: SK-OV-3 ovarian
[3] = tested on: SNB-75 CNS
[4] = tested on: SF-539 CNS
[5] = tested on: KM12 colon
[6] = tested on: MOLT-4 leukemia
[7] = tested on: SN12C renal
[8] = tested on: HL-60(TB) leukemia
[9] = tested on: OVCAR-3 ovarian
[10] = tested on: LOX IMVI melanoma

C[CH2][Sn]([CH2]C)([O]C(=O)c1cccc(F)c1)[O][Sn]([CH2]C)([CH2]C)[O]C(=O)c1cccc(F)c1
GI50 [1]: 18.7 µM | TGI [1]: 32.7 µM | GI50 [2]: > 100 µM | TGI [2]: > 100 µM | GI50 [3]: 16.9 µM | TGI [3]: 31.9 µM | GI50 [4]: 17 µM | TGI [4]: 30.9 µM | GI50 [5]: > 100 µM | TGI [5]: > 100 µM | GI50 [6]: 31.9 µM | TGI [6]: > 100 µM | GI50 [7]: 17 µM | TGI [7]: 31.3 µM | GI50 [8]: 26.6 µM | TGI [8]: 96.5 µM | GI50 [9]: 78.8 µM | TGI [9]: > 100 µM | GI50 [10]: 15.9 µM | TGI [10]: 29.6 µM

COc1ccc(/C=C/C(=O)c2cc3c(N)c(C(=O)Nc4ccccc4)sc3nc2C)cc1
GI50 [1]: 0.344 µM | TGI [1]: > 23 µM | GI50 [2]: 0.248 µM | TGI [2]: > 50 µM | GI50 [3]: 0.0933 µM | GI50 [4]: 0.105 µM | TGI [4]: 0.286 µM | GI50 [5]: 0.204 µM | TGI [5]: 7.18 µM | GI50 [6]: 0.318 µM | TGI [6]: > 50 µM | GI50 [7]: 0.311 µM | TGI [7]: > 21 µM | GI50 [8]: 0.119 µM | TGI [8]: 0.342 µM | GI50 [9]: 0.146 µM | TGI [9]: 0.791 µM | GI50 [10]: 0.332 µM | TGI [10]: 2.77 µM

S=C(Nc1ccccc1)N(Cc1ccccc1)c1ccccc1
TGI [1]: > 100 µM | TGI [2]: > 100 µM | TGI [3]: > 100 µM | TGI [4]: 66 µM | TGI [5]: 69.6 µM | TGI [6]: > 100 µM | TGI [7]: > 100 µM | TGI [8]: > 100 µM | TGI [9]: > 100 µM | TGI [10]: > 100 µM

OC(CNC1CCCC1)Cn1c2ccccc2c2ccccc21 (stereo not drawn)
GI50 [1]: 39.6 µM | TGI [1]: > 100 µM | GI50 [2]: 20.4 µM | TGI [2]: 43.4 µM | GI50 [3]: 12.9 µM | TGI [3]: 26.5 µM | GI50 [4]: 24.4 µM | TGI [4]: 82.9 µM | GI50 [5]: > 100 µM | TGI [5]: > 100 µM | GI50 [6]: > 100 µM | TGI [6]: > 100 µM | GI50 [7]: 44.2 µM | TGI [7]: > 100 µM | GI50 [8]: > 100 µM | TGI [8]: > 100 µM | GI50 [9]: 51.3 µM | TGI [9]: > 100 µM | GI50 [10]: > 100 µM | TGI [10]: > 100 µM

O=C1C[C@@H]2CCCC[C@@H]2C12SCCS2
TGI [1]: > 100 µM | TGI [2]: > 100 µM | TGI [3]: > 100 µM | TGI [4]: > 100 µM | TGI [5]: > 100 µM | TGI [6]: > 100 µM | TGI [7]: > 100 µM | TGI [8]: > 100 µM | TGI [9]: > 100 µM | TGI [10]: > 100 µM

CCCCCN(CCCCC)CC(O)c1cc2c(c3ccccc13)CCCC2 (stereo not drawn)
GI50 [1]: 5.03 µM and 8.43 µM | TGI [1]: 17.9 µM and 22.6 µM | GI50 [2]: 12.4 µM and 17 µM | TGI [2]: 24.9 µM and 34.8 µM | GI50 [3]: 10.4 µM and 11.9 µM | TGI [3]: 22.7 µM and 25.1 µM | GI50 [4]: 4.88 µM and 10.9 µM | TGI [4]: 16.9 µM and 23.6 µM | GI50 [5]: 3.34 µM and 6.95 µM | TGI [5]: 12.3 µM and 21.5 µM | GI50 [6]: 2.95 µM and 26.4 µM | TGI [6]: 13 µM and > 100 µM | GI50 [7]: 6.12 µM and 13.8 µM | TGI [7]: 19.8 µM and 30 µM | GI50 [8]: 2.53 µM and 7.51 µM | GI50 [9]: 6.22 µM and 10.5 µM | TGI [9]: 18.7 µM and 24.1 µM | GI50 [10]: 3.71 µM and 4.93 µM | TGI [10]: 14.8 µM and 28.1 µM

CS/C(c1ccccc1)=[N+](/C)[O-]
TGI [1]: > 100 µM | TGI [2]: > 100 µM | TGI [3]: > 100 µM | TGI [4]: > 100 µM | TGI [5]: > 100 µM | TGI [6]: > 100 µM | TGI [7]: > 100 µM | TGI [8]: > 100 µM | TGI [9]: > 100 µM | TGI [10]: > 58.2 µM
